Reference: ChEMBL document CHEMBL1154685, “Simple oxidation of pyrimidinylhydrazones to triazolopyrimidines and their inhibition of Shiga toxin trafficking” (Eur J Med Chem, 2010)

System: HeLa
Experiment: Toxicity in human HeLa cells assessed as inhibition of protein synthesis by [35S]labeled methionine and cysteine incorporation
Format: cell-based

SMILES	Activity
Oc1ccc(-c2nc3c4c5c(sc4ncn3n2)CCCC5)cc1	Non-toxic
COc1cc(/C=N/NC2=C3C4=C(CCCC4)SC3N=CN2)ccc1O (configuration not stated)	Non-toxic
